According to patent publication US20020111274A1, “1-alkyl-3-[1-(substituted phenyl) benzotriazol-6-yl] uracils” (BASF Aktiengesellschaft, priority 2000, published 2002):

| melting point [°C] | SMILES |
| --- | --- |
| 145 to 150 | COc1ccc(C)cc1-n1nnc2cc(F)c(-n3c(=O)cc(C(F)(F)F)[nH]c3=O)cc21 [Example 2, 3-[5-fluoro-1-(2-methoxy-5-methylphenyl)-1H-1,2,3-benzotriazol-6-yl]-6-(trifluoromethyl)-2,4(1H,3H)-pyrimidinedione] |
| 160 to 164 | CCc1ccc(-n2nnc3cc(F)c(-n4c(=O)cc(C(F)(F)F)[nH]c4=O)cc32)cc1 [Example 3, 3-[1-(4-ethylphenyl)-5-fluoro-1H-1,2,3-benzotriazol-6-yl]-6-(trifluoromethyl)-2,4(1H,3H)-pyrimidinedione] |
